Source: US11091484B2, “Tricyclic heterocycles as BET protein inhibitors” (Incyte Corporation, priority 2013, dated 2021)
Counter-ions that a name gives are not always drawn. Like-named read-outs stand apart in the source and are kept apart here.

Assays:
[1] = tested on: KMS.12.BM cell line (human myeloma); experiment: KMS.12.BM cell viability assay; type: cell-based; settings: KMS.12.BM cells, 3 days, Cell Titer-GLO ATP quantitation, read-out: KMS cellular IC50
Method: KMS. 12.BM cell line (human myeloma) was purchased from JCRB (Osaka, Japan) and maintained in RPMI with 10% FBS culture medium. To measure the cytotoxic activity of the compounds through ATP quantitation, the KMS. 12.BM cells are plated in the RPMI culture medium at 5000 cells/well/per 100 μL into a 96-well polystyrene clear black tissue culture plate (Greiner-bio-one through VWR, NJ), in the presence or absence of a concentration range of test compounds. After 3 days, […] Cell Titer-GLO Luminescent (Promega, Madison, Wis.) cell culture agent is added to each well for 10 minutes at room temperature to stabilize the luminescent signal. This determines the number of viable cells in culture based on quantitation of the ATP present, which signals the presence of metabolically active cells. Luminescence is measured with the Top Count 384 (Packard Bioscience through Perkin Elmer, Boston, Mass.). […] IC50 data for the Examples is presented in Table 4 as determined by Assay B1.

[2] = target: BRD4-BD2 (Homo sapiens (Human), UniProt O60885); experiment: BRD4 AlphaScreen assay (BRD4-BD2); type: binding; settings: H4Ac4 peptide, 20 nM BRD4-BD2, read-out: BRD4 BD-2 enzyme IC50
Method: (§1) BRD4-BD1 and BRD4-BD2 assays were conducted in white 384-well polystyrene plate in a final volume of 20 μL for BD1 and 40 μL for BD2. Inhibitors were first serially diluted in DMSO and added to the plate wells before the addition of other reaction components. The final concentration of DMSO in the assay was 1.25% (BD1) and 0.83% (BD2). The assays were carried out at room temperature for 75 min. in the assay buffer (50 mM HEPES, pH 7.4, 100 mM NaCl, 0.05% CHAPS, 0.01% BSA), containing 50 nM Biotin-labeled tetra-acetylated histone H4 peptide (H4Ac4), 3.8 nM (BRD4-BD1, BPS Bioscience #31040) or 20 nM (BRD4-BD2, BPS Bioscience #31041). The reaction followed by the addition of 20 μL of assay buffer supplemented with Streptavidin donor beads (PerkinElmer 6760002) and GSH Acceptor beads (PerkinElmer-AL109C) at 4 μg/mL under reduced light. After plate sealing, the plate was incubated in the dark at room temperature for 75 min. before reading on a PHERAstar FS plate reader (BMG Labtech). IC50 determination was performed by fitting the curve of percent control activity versus the log of the inhibitor concentration using the GraphPad Prism 5.0 software.

[3] = target: BRD4-BD1 (Homo sapiens (Human), UniProt O60885); experiment: BRD4 AlphaScreen assay (BRD4-BD1); type: binding; settings: H4Ac4 peptide, 3.8 nM BRD4-BD1, read-out: BRD4 BD-1 enzyme IC50
Method: as §1

Row | IC50 ([1]; Homo sapiens, 72 h) [µM] | IC50 [2] [µM] | IC50 [3] [µM] | SMILES | IC50 [1] [µM]
1 | ≤ 1 | ≤ 0.1 | ≤ 0.1 | Cc1cc2c(cc(N[C@H]3CCN(C)[C@@H](C)C3)c3nnc(C)n32)n1Cc1ccccc1 (racemic) [Example 224, 6-Benzyl-N-[(2S,4S)-1,2-dimethylpiperidin-4-yl]-1,7-dimethyl-6H-pyrrolo[2,3-e][1,2,4]triazolo[4,3-a]pyridin-4-amine and 6-Benzyl-N-[(2R,4R)-1,2-dimethylpiperidin-4-yl]-1,7-dimethyl-6H-pyrrolo[2,3-e][1,2,4]triazolo[4,3-a]pyridin-4-amine (Racemic Mixture Prepared)] | 
2 | ≤ 1 |  |  | Cc1nnc2ccc3c(cc(-c4ccn(CCC(=O)N(C)C)n4)n3Cc3cccc(Cl)c3)n12 [Example 103, 3-{3-[6-(3-chlorobenzyl)-1-methyl-6H-pyrrolo[2,3-e][1,2,4]triazolo[4,3-a]pyridin-7-yl]-1H-pyrazol-1-yl}-N,N-dimethylpropanamide] | 
3 |  |  |  | Cc1nnc2ccc3c(cc(-c4cc[nH]n4)n3Cc3cccc(CN4CCC4)c3)n12 [Example 182, 6-[3-(Azetidin-1-ylmethyl)benzyl]-1-methyl-7-(1H-pyrazol-3-yl)-6H-pyrrolo[2,3-e][1,2,4]triazolo[4,3-a]pyridine tris(trifluoroaceate) Salt] | ≤ 1
